Assay results from the supplement of paper PMC10307832.

Tests used:
Test in all cases: relative viability (nuclei count vs DMSO), 5 days (fraction); higher = more cells survive
Doxorubicin + Crizotinib = compound: COc1cccc2c1C(=O)c1c(O)c3c(c(O)c1C2=O)C[C@@](O)(C(=O)CO)C[C@@H]3O[C@H]1C[C@H](N)[C@H](O)[C@H](C)O1 [Doxorubicin] + C[C@@H](Oc1cc(-c2cnn(C3CCNCC3)c2)cnc1N)c1c(Cl)ccc(F)c1Cl [Crizotinib] (partner 1 µM)
How it was run: (§1)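 Lung cancer cell lines were seeded in 1536-well plates and dosed by pin tool the next day, with either a single drug or a fixed anchor-drug dose combined with five library-drug doses (not always all listed) spaced in √10 steps. Five days later, one step fixed the cells and stained their nuclei (final 0.05% Triton X-100, 1% formaldehyde, 1 ug/ml Hoechst), and nuclei were counted on 4× images. Relative viability is the nuclei count in treated wells divided by the count in vehicle wells, and each value is the median of duplicate plates.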

Doxorubicin + Foretinib = compound: COc1cccc2c1C(=O)c1c(O)c3c(c(O)c1C2=O)C[C@@](O)(C(=O)CO)C[C@@H]3O[C@H]1C[C@H](N)[C@H](O)[C@H](C)O1 [Doxorubicin] + COc1cc2c(Oc3ccc(NC(=O)C4(C(=O)Nc5ccc(F)cc5)CC4)cc3F)ccnc2cc1OCCCN1CCOCC1 [Foretinib] (partner 0.25 µM)
How it was run: as §1

BAY61-3606 + Dasatinib = compound: COC1=C(C=C(C=C1)C2=CC3=NC=CN3C(=N2)NC4=C(C=CC=N4)C(=O)N)OC [BAY61-3606] + Cc1nc(Nc2ncc(C(=O)Nc3c(C)cccc3Cl)s2)cc(N2CCN(CCO)CC2)n1 [Dasatinib] (partner 0.075 µM)
How it was run: as §1

BAY61-3606 + Alpelisib = compound: COC1=C(C=C(C=C1)C2=CC3=NC=CN3C(=N2)NC4=C(C=CC=N4)C(=O)N)OC [BAY61-3606] + Cc1nc(NC(=O)N2CCC[C@H]2C(N)=O)sc1-c1ccnc(C(C)(C)C(F)(F)F)c1 [Alpelisib] (partner 2 µM)
How it was run: as §1

| Cell Line | relative viability (Doxorubicin + Crizotinib; first compound 0.001 µM) | relative viability (Doxorubicin + Crizotinib; first compound 0.003162 µM) | relative viability (Doxorubicin + Crizotinib; first compound 0.01 µM) | relative viability (Doxorubicin + Crizotinib; first compound 0.03162 µM) | relative viability (Doxorubicin + Crizotinib; first compound 0.1 µM) | relative viability (Doxorubicin + Foretinib; first compound 0.001 µM) | relative viability (Doxorubicin + Foretinib; first compound 0.003162 µM) | relative viability (Doxorubicin + Foretinib; first compound 0.01 µM) | relative viability (Doxorubicin + Foretinib; first compound 0.03162 µM) | relative viability (Doxorubicin + Foretinib; first compound 0.1 µM) | relative viability (BAY61-3606 + Dasatinib; first compound 0.02 µM) | relative viability (BAY61-3606 + Dasatinib; first compound 0.06325 µM) | relative viability (BAY61-3606 + Dasatinib; first compound 0.2 µM) | relative viability (BAY61-3606 + Dasatinib; first compound 0.6325 µM) | relative viability (BAY61-3606 + Dasatinib; first compound 2 µM) | relative viability (BAY61-3606 + Alpelisib; first compound 0.02 µM) | relative viability (BAY61-3606 + Alpelisib; first compound 0.06325 µM) | relative viability (BAY61-3606 + Alpelisib; first compound 0.2 µM) | relative viability (BAY61-3606 + Alpelisib; first compound 0.6325 µM) | relative viability (BAY61-3606 + Alpelisib; first compound 2 µM) |
| --- | --- | --- | --- | --- | --- | --- | --- | --- | --- | --- | --- | --- | --- | --- | --- | --- | --- | --- | --- | --- |
| NCI-H2023 | 0.598 | 0.679 | 0.36 | 0.0967 | 0.0644 | 0.567 | 0.934 | 0.507 | 0.461 | 0.17 | 0.639 | 0.601 | 0.554 | 0.525 | 0.334 | 0.614 | 0.607 | 0.604 | 0.6 | 0.471 |
| NCI-H2085 | 0.924 | 0.97 | 0.943 | 0.648 | 0.63 | 1.05 | 0.981 | 1.08 | 0.923 | 0.855 | 0.281 | 0.226 | 0.285 | 0.248 | 0.25 | 0.994 | 0.977 | 1.04 | 0.949 | 0.871 |
| NCI-H2087 | 0.795 | 0.952 | 0.923 | 0.661 | 0.666 | – | 1.1 | 1.03 | 0.851 | 0.693 | 1.01 | 0.858 | 0.906 | 0.79 | 0.635 | 1.15 | 1.17 | 1.02 | 1.16 | 0.949 |
| NCI-H2126 | 1.04 | 1.08 | 0.961 | 1.08 | 1.05 | 1.29 | 1.12 | 0.884 | 1.12 | 1.28 | 0.676 | 0.599 | 0.573 | 0.567 | 0.356 | 0.784 | 0.769 | 0.705 | 0.739 | 0.671 |
| NCI-H2170 | 1.25 | 1.46 | 1.23 | 1.03 | 1.32 | 0.994 | 1.07 | 0.998 | 0.96 | 0.97 | 0.64 | 0.508 | 0.539 | 0.465 | 0.352 | 0.775 | 0.869 | 0.801 | 0.857 | 0.512 |
| NCI-H2228 | 0.562 | 0.384 | 0.421 | 0.343 | 0.197 | 0.805 | 0.992 | 0.689 | 0.651 | 0.363 | 0.572 | 0.498 | 0.571 | 0.46 | 0.278 | 0.702 | 0.654 | 0.782 | 0.736 | 0.561 |
| NCI-H2347 | 0.869 | 0.735 | 0.735 | 0.603 | 0.503 | 0.845 | 0.847 | 0.708 | 1.02 | 0.714 | 0.328 | 0.3 | 0.283 | 0.332 | 0.319 | 1.17 | 0.9 | 1.13 | 1.16 | 0.986 |
| NCI-H2405 | 0.843 | 0.869 | 0.846 | 0.871 | 0.85 | 1.02 | 1.1 | 1.02 | 1.09 | 1 | 0.203 | 0.205 | 0.201 | 0.181 | 0.185 | 1.03 | 0.619 | 0.682 | 0.881 | 0.574 |
| NCI-H3122 | 0.247 | 0.302 | 0.295 | 0.257 | 0.282 | 0.959 | 0.918 | 0.944 | 0.942 | 0.904 | 0.838 | 0.882 | 0.736 | 0.897 | 0.691 | 0.797 | 0.879 | 0.868 | 0.833 | 0.69 |
| PC-3 [JPC-3] | 0.999 | 1 | 0.977 | 0.931 | 0.936 | 1.05 | 1.06 | 1.05 | 0.97 | 1.06 | – | 1.07 | 1 | 0.928 | 0.862 | 1.05 | 1.08 | 1.04 | 1.05 | 0.878 |
| PC-14 | 0.893 | 0.985 | 0.962 | 0.892 | 0.944 | 1 | 0.967 | 0.998 | 0.912 | 0.931 | 0.269 | 0.249 | 0.264 | 0.287 | 0.176 | 0.996 | 0.995 | 0.929 | 1.06 | 0.841 |
| RERF-LC-KJ | 0.872 | 0.846 | 0.865 | 0.956 | 0.7 | 0.9 | 0.944 | 0.81 | 0.761 | 0.867 | 0.843 | 0.856 | 0.702 | 0.886 | 0.517 | 0.957 | 0.751 | 0.765 | 0.853 | 0.629 |
| SK-LU-1 | 1.15 | 1.03 | 0.639 | 0.472 | 0.32 | 0.85 | 0.812 | 0.76 | 0.507 | 0.333 | 0.2 | 0.148 | 0.148 | 0.169 | 0.152 | 1.37 | 0.951 | 1.04 | 0.844 | 0.421 |
| SK-MES-1 | 1.08 | 1.05 | 0.97 | 0.871 | 0.865 | 1 | 0.843 | 0.923 | 0.818 | 0.766 | 0.379 | 0.302 | 0.357 | 0.339 | 0.23 | 1.02 | 0.968 | 1 | 0.986 | 0.7 |
| SW 1573 | 0.905 | 0.794 | 0.85 | 0.687 | 0.69 | 0.921 | 1.19 | 0.829 | 0.451 | 0.503 | 0.535 | 0.416 | 0.43 | 0.373 | 0.203 | 0.838 | 0.679 | 0.88 | 0.822 | 0.451 |
